# Measured values: patent US20260193244A1 (Protego Biopharma, Inc., priority 2022, published 2026)
# System: IRE1-XBP1s (HEK293 T-REx cells stably expressing the XBP1-RLuc splicing reporter)
# Test: IRE1-XBP1s activation Assay (XBP1-RLuc splicing reporter, luminescence relative to thapsigargin, with or without IRE1 inhibitor 4μ8C)
# Type: cell-based
# Conditions: 18 h, compound 10 μM, luminescence as percentage signal relative to thapsigargin (Tg) (500 nM, 18 h)
# Description: IRE1-XBP1s activation Assay: HEK293 T-REx cells stably expressing the XBP1-RLuc splicing reporter were treated with an IRE1-XBP1s activator provided herein (10 μM) in the presence or absence of the IRE1 active site inhibitor 4μ8C (32 μM) for 18 h. Luminescence was shown as the percentage signal relative to thapsigargin (Tg) (500 nM, 18 h).
row,Structure (SMILES),activation at 10 µM [%]
1,[2H]C([2H])([2H])c1ccc(OCCN(C)C(=O)Cn2cc(NC(=O)C3CNc4ccccc4O3)cn2)cc1 (centres unmarked) [Compound 201],≥ 50
2,Cc1ccc(OCCN(C)C(=O)Cn2cc(NC(=O)[C@H]3CCc4ccccc4O3)cn2)cc1 [Compound 202],30 to 50
3,Cc1ccc(OCCN(C)C(=O)Cn2cc(NC(=O)C3CNCC3Nc3ccnc(F)n3)cn2)cc1 (centres unmarked) [Compound 203],< 30
4,Cc1ccc(OCCN(C)C(=O)Cn2cc(N(C)C(=O)C3=C(c4ccccc4)CCCC3)cn2)cc1 [Compound 205],< 30
5,Cc1ccc(OCCN(C)C(=O)Cn2cc(NC(=O)OC3CCCNC3)cn2)cc1 (centres unmarked) [Compound 206],< 30
